Assay results as given in PMC7478165, “Derivatisation of parthenolide to address chemoresistant chronic lymphocytic leukaemia” (MedChemComm, 2019).
Read-outs that look alike come from different tables or passages of the source.

Assays:
MEC1 CLL cell line = experiment: alamarBlue assay, in vitro antileukaemic activity against MEC1 CLL cell line; format: cell-based; conditions: for EC50: MEC1 cell line, alamarBlue assay, library screen, read-out: EC50 ave.
Description: Defective p53-signalling increases genomic instability and drives tumour progression. A high frequency of p53 inactivation is found in relapsed, treatment-resistant, high risk CLL.[30] […] Owing to resource availability a subset of up to ten of these compounds was prioritised for further investigation. Compounds 2d, 2e, 2j, 2aa, 5a, 5d, 5e, 5f, 5ab and 6b were selected on the basis of reasons including ease of synthetic access, diversity across the chemical space probed and novelty. Those prepared under conditions (i)Scheme 1 (2d, 5a and 6b) were available on a scale and in a purity to directly permit follow-up studies, whereas compounds prepared under conditions (ii)Scheme 1 were prepared on a small scale so were resynthesised. These seven compounds (2e, 2j, 2aa, 5d, 5e, 5f and 5ab) were isolated on >30 mg scale in high purity and progressed to more following studies.
Following the identification of 5f as the most promising drug-like derivative of PTL from the aforementioned parallel/high-throughput screening, the anti-leukaemic activity of 5f was tested once more and compared directly with that of PTL (1) and DMAPT (2a), which serve as comparators and positive controls.
Amine 7 was successfully prepared as follows: 4-Piperidinecarboxylic acid was N-Boc protected to deliver 8 in 92% yield.[43] In order to confidently assign the NMR spectra of compound 8 J-MOD, HSQC and ^1H–^1H COSY were helpful, particularly in establishing that a broad resonance in the proton-decoupled ^13C NMR spectrum, centred on 42.8 ppm, corresponds to the ring-carbons bonded to nitrogen. The carboxylic acid of 8 was converted to the corresponding ethyl-3-keto-propanoate 9 in 24% yield. Conversion of 9 to the N-Boc protected congener 10, was achieved by treatment with acetamidine hydrochloride and potassium carbonate, furnishing 10 in 77% yield. Treatment with trifluoroacetic acid delivered desired compound 7 in 99% yield for the Boc-deprotection step (scale 200 mg, 17% over four linear steps). Thus, evidencing accessibility of amine 7 and with it in hand, it was timely to probe any activity arising from the amine alone. MEC1 sensitivity to 1, 5f and 7 was compared in parallel using the alamarBlue® assay (Fig. 6). […] A pre-peer-reviewed preprint of this article was deposited and may be viewed elsewhere.[44]

[1] = Stability in aqueous solution, pH 7.4; format: physicochemical; conditions: for half-life: pH 7.4, read-out: Stability pH 7.4 T1/2
Experimental: Compounds 2d, 2e, 2f, 2g, 2j, 2aa, 5a, 5d, 5e, 5f, 5ab and 6b were subjected to in vitro DMPK testing. […] The other three (2d, 2j and 2aa) were not retained for further investigation due to poor stability (T1/2 at pH 7.4: 13, 107 and 76 min, Table 1, entries 1, 3 and 4 respectively). One obvious aspect contributing to observed stability is the propensity for PTL derivatives of this type to undergo a retro-amination (reverse-Michael-type mechanism), indeed this reverse reaction is often claimed as a pro-drug mode of action.[29a],[33] […] It is a reasonable assertion that activity observed for these unstable compounds could well be ascribed to free PTL generated rapidly in the assay.

[2] = Microsomal stability assay (mouse); conditions: mouse microsomes
[3] = Caco-2 permeability assay; format: in vitro ADME; conditions: human
[4] = Murine oral (PO) PK study; format: in vivo; conditions: PO 10 mg kg^–1; for bioavailability: read-out: Mouse PK (PO) F%
Experimental: The in vivo oral bioavailability of compounds 5a and 5f was compared in a murine PK study at 10 mg kg^–1 (Fig. 4(a)ii and (b)ii and Table 2). In keeping with the intravenous findings, the murine PO half-life of 5f was twice as long as 5a (1.0 versus 0.5 hours, Table 2) and the Cmax attained by 5f was approximately 40% higher than that achieved by 5a (404 versus 283 ng mL^–1). […] Compound 5f was therefore identified as a promising potential new agent with desirable pharmacological properties towards a therapy for drug-resistant CLL.

[5] = Murine intravenous PK study; format: in vivo; conditions: IV 1 mg kg^–1; for Vd: read-out: Mouse PK (IV) VSS
Experimental: In order to determine 5a and 5f are suitable for use as pharmaceutical agents their pharmacokinetic (PK) parameters were next probed. A murine intravenous PK study of compounds 5a and 5f at 1.0 mg kg^–1 was conducted and their concentrations in blood were measured with time (Fig. 4(a)i and (b)i and Table 2).

[6] = MEC1 cell line pEC50 minus calculated log P
[7] = first of two columns headed A to B
[8] = second of two columns headed A to B

Structure (SMILES): CCN(CCO)C[C@@H]1C(=O)O[C@H]2[C@H]1CC/C(C)=C/CC[C@@]1(C)O[C@H]21 [C00001]
- LipE pEC50–clog P (MEC1 CLL cell line; [6]): 3.31
- EC50 (MEC1 CLL cell line): 4.7 µM
- Stability pH 7.4 T1/2 [1]: 13 min

Structure (SMILES): CCn1cc(CN(C[C@@H]2C(=O)O[C@H]3[C@H]2CC/C(C)=C/CC[C@@]2(C)O[C@H]32)C(C)C)cn1 [C00002]
- LipE pEC50–clog P (MEC1 CLL cell line; [6]): 1.61
- EC50 (MEC1 CLL cell line): 5.6 µM
- half-life [1]: > 2 h
- Mouse microsomal stability [2, 7]: 828
- Mouse microsomal stability [2, 8]: 2

Structure (SMILES): COc1ccc(CN(C)C[C@@H]2C(=O)O[C@H]3[C@H]2CC/C(C)=C/CC[C@@]2(C)O[C@H]32)cc1OC [C00003]
- LipE pEC50–clog P (MEC1 CLL cell line; [6]): 1.48
- EC50 (MEC1 CLL cell line): 5.6 µM
- Stability pH 7.4 T1/2 [1]: 107 min

Structure (SMILES): C/C1=C\CC[C@@]2(C)O[C@@H]2[C@H]2OC(=O)[C@@H](CN(C)CCc3ccccc3)[C@@H]2CC1 [C00004]
- LipE pEC50–clog P (MEC1 CLL cell line; [6]): 2.52
- EC50 (MEC1 CLL cell line): 5.9 µM
- Stability pH 7.4 T1/2 [1]: 76 min

Structure (SMILES): C/C1=C\CC[C@@]2(C)O[C@@H]2[C@H]2OC(=O)[C@@H](CN3CCC(Oc4cccnc4)CC3)[C@@H]2CC1 [C00006]
- LipE pEC50–clog P (MEC1 CLL cell line; [6]): 2.48
- EC50 (MEC1 CLL cell line): 5.4 µM
- half-life [1]: > 2 h
- Mouse microsomal stability [2, 7]: 251
- Mouse microsomal stability [2, 8]: 6

Structure (SMILES): C/C1=C\CC[C@@]2(C)O[C@@H]2[C@H]2OC(=O)[C@@H](CN3CCC(O)(c4ccccc4)CC3)[C@@H]2CC1 [C00007]
- LipE pEC50–clog P (MEC1 CLL cell line): 1.90
- EC50 (MEC1 CLL cell line): 6 µM
- half-life [1]: > 2 h

Structure (SMILES): C/C1=C\CC[C@@]2(C)O[C@@H]2[C@H]2OC(=O)[C@@H](CN3CCC(OCc4cccnc4)CC3)[C@@H]2CC1 [C00009]
- LipE pEC50–clog P (MEC1 CLL cell line; [6]): 2.29
- EC50 (MEC1 CLL cell line): 7.6 µM
- efflux ratio ([3]; Caco-2, pH 7.4): 0.8
- Papp A→B ([3]; Caco-2, pH 7.4, A to B): 10.9 ×10⁻⁶ cm/s
- Papp B→A ([3]; Caco-2, pH 7.4, B to A): 9.1 ×10⁻⁶ cm/s
- half-life [1]: > 2 h
- Mouse microsomal stability [2, 7]: 128
- Mouse microsomal stability [2, 8]: 11

Structure (SMILES): C/C1=C\CC[C@@]2(C)O[C@@H]2[C@H]2OC(=O)[C@@H](CN3CCCC3)[C@@H]2CC1 [C00011]
- Mouse PK (PO) UC (0-inf) [4]: 711 ng h mL^–1
- Cmax ([4]; in vivo, mouse): 283 ng/mL
- Tmax ([4]; in vivo, mouse): 0.5 h
- bioavailability ([4]; in vivo, mouse): 95.8%
- Mouse PK (IV) UC (0-inf) [5]: 80.5 ng h mL^–1
- clearance ([5]; blood, mouse, read-out: Mouse PK (IV) Cl): 207 mL/min/kg
- half-life ([5]; blood, mouse, read-out: Mouse PK (IV) T1/2 (converted)): 0.66 h
- Vd ([5]; blood, mouse): 11.6 L/kg

Structure (SMILES): C/C1=C\CC[C@@]2(C)O[C@@H]2[C@H]2OC(=O)[C@@H](CN3CCC(c4cc(O)nc(C)n4)CC3)[C@@H]2CC1 [C00012]
- EC50 (MEC1 CLL cell line): 7.7 µM
- Mouse PK (PO) Cmax [4]: 404 ng mL^–1
- Mouse PK (PO) UC (0-inf) [4]: 1696 ng h mL^–1
- Tmax ([4]; in vivo, mouse): 1 h
- bioavailability ([4]; in vivo, mouse): 58.5%
- Mouse PK (IV) Cl [5]: 58 mL min^–1 kg^–1
- Mouse PK (IV) T1/2 [5]: 1.14 h
- Mouse PK (IV) UC (0-inf) [5]: 289 ng h mL^–1
- Vd ([5]; blood, mouse): 4.62 L/kg
